Read-outs that look alike come from different tables or passages of the source.
Key:
[1] = system: SARS-CoV-2 in Vero-E6 cells; experiment: microbe, parasite or virus in culture; assay type: cell-based; conditions: for EC50: read-out: EC50 approx.
[2] = system: vesicular stomatitis virus (VSV-GFP); experiment: microbe, parasite or virus in culture; assay type: cell-based; conditions: A549-ACE2, 16 h
[3] = in vitro; conditions: human
Protocol: Cytotoxicity profile of the selected compounds was evaluated by MTT assays in parallel wells of Huh-7 cells. Uninfected cells were incubated with a range of compound concentrations (from 50 to 0.78 µM) for forty-eight hours, time at which the MTT substrate [3-(4,5-dimethylthiazol-2-yl)-2,5-diphenyltetrazolium bromide] was added and the formation of formazan precipitates was evaluated two hours later, using a colorimetric readout. Vehicle-treated (DMSO) cells were used as reference (100 %).

[4] = system: West Nile virus (WNV-GFP); experiment: microbe, parasite or virus in culture; assay type: cell-based; conditions: Huh-7, 48 h
[5] = system: SARS-CoV-2; experiment: Intracellular viral antigen (N protein) accumulation by immunofluorescence, Vero-E6 cells; assay type: cell-based
[6] = in vitro; conditions: African green monkey
[7] = in vitro; conditions: human; remark: listed apart in the source
Protocol: (§1) To study the antiviral effect of selected compounds of the family against a distinct human coronavirus, Huh-7 cell monolayers were infected with a GFP-expressing recombinant HCoV 229E (229E-GFP) at MOI 0.01 in the presence of a wide range of compound concentrations (0.4 to 50 µM). Forty-eight hours later cells were fixed by 10 minutes incubation with a 4 % formaldehyde-PBS solution. After extensive washes with PBS, infection efficiency was evaluated by the detection of GFP accumulation by fluorescence microscopy. Nuclei were stained using DAPI (4',6-diamidino-2-phenylindole) dye. Automated imaging was carried out in a SparkCyto (Tecan) multimode plate reader. The total intensity signal present in vehicle-treated (DMSO) conditions was used as reference (100 %).

[8] = system: SARS-CoV-2; experiment: Intracellular viral antigen (N protein) accumulation by immunofluorescence, A549-ACE2 cells; assay type: cell-based
[9] = in vitro; conditions: human; remark: listed apart in the source
[10] = in vitro; conditions: human; remark: listed apart in the source
Protocol: To evaluate the cytotoxicity profile of the selected compounds MTT assays were performed in Vero-E6 and A549-ACE2 cells. Uninfected cells were incubated with a range of compound concentrations (from 50 to 0.78 µM) for forty-eight hours, time at which the MTT substrate [3-(4,5-dimethylthiazol-2-yl)-2,5-diphenyltetrazolium bromide] was added and the formation of formazan precipitates was evaluated two hours later, using a colorimetric readout. Vehicle-treated (DMSO) cells were used as reference (100 %).

[11] = in vitro; conditions: human; remark: listed apart in the source
[12] = system: HCoV 229E (229E-GFP); experiment: organism not typed; conditions: Huh-7, 48 h
Protocol: as §1

[13] = Cytotoxicity by MTT colorimetric assay, Vero-E6; assay type: cell-based; conditions: African green monkey, uninfected Vero-E6 cells
[14] = Severe acute respiratory syndrome coronavirus 2, Vero C1008, 72 h
[15] = Severe acute respiratory syndrome coronavirus 2, Vero C1008, approximate, estimated from PCmax and PCmin, Vero-E6, MOI 0.001, 72 h
[16] = Severe acute respiratory syndrome coronavirus 2, Vero C1008, minimum nominal concentration protecting the Vero-E6 monolayer from virus-induced cell death, MOI 0.001, 72 h, read-out: PCmin
[17] = Severe acute respiratory syndrome coronavirus 2, Vero C1008, real concentration, Vero-E6, MOI 0.001, 72 h, read-out: PC min real
[18] = Severe acute respiratory syndrome coronavirus 2, Vero C1008, Vero-E6, MOI 0.01, 24 h, N protein signal, read-out: EC50
[19] = Severe acute respiratory syndrome coronavirus 2, Vero C1008, Vero-E6, MOI 0.01, 24 h, N protein signal, read-out: EC90
[20] = Severe acute respiratory syndrome coronavirus 2, A549-ACE2, MOI 0.005, 48 h, N protein signal, read-out: EC50
[21] = Severe acute respiratory syndrome coronavirus 2, A549-ACE2, MOI 0.005, 48 h, N protein signal, read-out: EC90
[22] = Severe acute respiratory syndrome coronavirus 2, Vero C1008, 72 h, read-out: PC min real
[23] = Severe acute respiratory syndrome coronavirus 2, Vero C1008, 72 h, read-out: PCmin
[24] = Severe acute respiratory syndrome coronavirus 2, Vero C1008, 24 h
[25] = Severe acute respiratory syndrome coronavirus 2, A549-ACE2, 48 h

Row | SMILES | EC50 [1, 14] | EC50 [1, 15] | minimal effective concentration [1, 16] | minimal effective concentration [1, 17] | minimal effective concentration [1, 22] | minimal effective concentration [1, 23] | further results
1 | CCCCCCOC(=O)[C@H](CCC(=O)NCCC1CCN(Cc2ccccc2)CC1)NC(=O)c1ccccc1 [NF0818] | 9.7 µM |  |  |  |  |  | PC min real ([1]; 72 h): 13.0 µM; PCmax real ([1]; 72 h): 51.9 µM
2 | CCOC(=O)CC[C@H](NC(=O)OCc1ccccc1)C(=O)NCCC1CCN(Cc2ccccc2)CC1 [NF1313] |  | 19 µM | 25 µM | 25.3 µM |  |  | 
3 | CCOC(=O)[C@H](CCC(=O)NCCC1CCN(Cc2ccccc2)CC1)NC(=O)c1ccccc1 [NF1316] |  | 19.4 µM | 25 µM | 25.9 µM |  |  | 
4 | CCOC(=O)[C@H](CCC(=O)NCCC1CCN(Cc2ccccc2)CC1)NC(=O)c1ccc2cc(OC)ccc2c1 [NF1322] |  | 9.4 µM | 12.5 µM | 12.5 µM |  |  | 
5 | CCCCCCOC(=O)[C@H](CCC(=O)NCCC1CCN(Cc2ccccc2)CC1)NC(=O)c1c[nH]c2ccccc12 [NF1325] |  | 19.6 µM | 25 µM | 26.1 µM |  |  | 
6 | CCCCCCOC(=O)[C@H](CCC(=O)NCCC1CCN(Cc2ccccc2)CC1)NC(=O)c1cc(C)on1 [NF1328, n-Hexyl N^5-(2-(1-benzylpiperidin-4-yl)ethyl)-N^2-(5-methylisoxazole-3-carbonyl)-L-glutaminate] |  | 4.9 µM | 6.25 µM | 6.5 µM |  |  | 
7 | CCCCCCOC(=O)[C@H](CCC(=O)NCCC1CCN(Cc2ccccc2)CC1)NC(=O)c1coc(C)n1 [NF1331, n-Hexyl N^5-(2-(1-benzylpiperidin-4-yl)ethyl)-N^2-(2-methyloxazole-4-carbonyl)-L-glutaminate] |  | 2.4 µM | 3.12 µM | 3.3 µM |  |  | EC50 [2]: 38 µM; EC90 [2]: > 50 µM; CC50 [3]: > 50 µM; CC50 at 48 h [3]: > 50 µM; EC50 [4]: > 50 µM; EC90 [4]: > 50 µM; EC50 [5, 18]: 1.5 µM; EC90 [5, 19]: 11 µM; CC50 [6]: > 50 µM; CC50 at 48 h [7]: 43 µM; EC50 [8, 20]: 1.8 µM; EC90 [8, 21]: 5 µM; CC50 [9]: > 50 µM; CC50 [10]: > 50 µM; CC50 at 48 h [10]: > 50 µM; CC50 at 48 h [11]: > 50 µM; EC50 [12]: 2 µM; EC90 [12]: 20 µM; CC50 at 48 h [13]: > 50 µM
8 | CCCCCCOC(=O)[C@H](CCC(=O)NCCC1CCN(Cc2ccccc2)CC1)NC(=O)Cc1cc(C)no1 [NF1334, n-Hexyl N^5-(2-(1-benzylpiperidin-4-yl)ethyl)-N^2-(2-(3-methylisoxazol-5-yl)acetyl)-L-glutaminate] |  | 10.5 µM | 25 µM | 14 µM |  |  | 
9 | CCOC(=O)[C@H](CCC(=O)NCCC1CCN(Cc2ccccc2)CC1)NC(=O)c1cc(=O)c2cc(OC)ccc2o1 [NF1336, Ethyl N^5-(2-(1-benzylpiperidin-4-yl)ethyl)-N^2-(6-methoxy-4-oxo-4H-chromene-2-carbonyl)-L-glutaminate] |  | 18.4 µM | 25 µM | 24.5 µM |  |  | 
10 | CCCCCCOC(=O)[C@H](CCC(=O)NCCC1CCN(Cc2ccccc2)CC1)NC(=O)c1cc(=O)c2cc(OC)ccc2o1 [NF1337, n-Hexyl N^5-(2-(1-benzylpiperidin-4-yl)ethyl)-N^2-(6-methoxy-4-oxo-4H-chromene-2-carbonyl)-L-glutaminate] |  | 7.7 µM | 12.5 µM | 10.3 µM |  |  | 
11 | CCCCCCOC(=O)[C@H](CCC(=O)NCCC1CCN(Cc2ccccc2)CC1)NC(=O)c1cc(=O)c2c(OC)cc(OC)cc2o1 [NF1340, n-Hexyl N^5-(2-(1-benzylpiperidin-4-yl)ethyl)-N^2-(5,7-dimethoxy-4-oxo-4H-chromene-2-carbonyl)-L-glutaminate] |  | 41.8 µM | 50 µM | 55.7 µM |  |  | 
12 | CCCCCCOC(=O)[C@H](CCC(=O)NCCC1CCN(Cc2ccccc2)CC1)NC(=O)OC(C)(C)C [NF1346] | 9.3 µM |  |  |  | 12.4 µM | 12.5 µM | 
13 | CCCCCCOC(=O)[C@H](CCC(=O)NCCC1CCN(Cc2ccccc2)CC1)NC(=O)OCc1ccccc1 [NF1349] | 4.7 µM |  |  |  | 6.3 µM | 6.25 µM | EC50 [2]: 36 µM; EC90 [2]: 47 µM; EC50 [4]: 36 µM; EC90 [4]: > 50 µM; EC50 [5, 24]: 3.1 µM; EC90 [5, 24]: 7 µM; CC50 [6]: > 50 µM; EC50 [8, 25]: 3 µM; EC90 [8, 25]: 5.5 µM; EC50 [12]: 2 µM; EC90 [12]: 10 µM; CC50 at 48 h [13]: > 50 µM
14 | CCCCCCOC(=O)[C@H](CCC(=O)NCCC1CCN(Cc2ccccc2)CC1)NC(=O)c1cccs1 [NF1350] | 6.9 µM |  |  |  | 9.2 µM | 6.25 µM | 
15 | CCCCCCOC(=O)[C@H](CCC(=O)NCCC1CCN(Cc2ccccc2)CC1)NC(=O)c1cc(Br)cs1 [NF1351] | 4.3 µM |  |  |  | 5.7 µM | 6.25 µM | 
16 | CCCCCCOC(=O)[C@H](CCC(=O)NCCC1CCN(Cc2ccccc2)CC1)NC(=O)c1cc2ccccc2s1 [NF1352] | 9.2 µM |  |  |  | 12.3 µM | 12.5 µM | 
17 | CCCCCCOC(=O)[C@H](CCC(=O)NCCC1CCN(Cc2ccccc2)CC1)NC(=O)Cc1cc2ccc(Cl)cc2s1 [NF1353] | 4.5 µM |  |  |  | 6 µM | 6.25 µM | 
18 | CCCCCCOC(=O)[C@H](CCC(=O)NCCC1CCN(Cc2ccccc2)CC1)NC(=O)c1cc2cccnc2s1 [NF1354] | 20.9 µM |  |  |  | 27.8 µM | 25 µM | 
19 | CCOC(=O)[C@H](CCC(=O)NCCC1CCN(Cc2ccccc2)CC1)NC(=O)c1cc2ccccc2oc1=O [NF1358, Ethyl N^5-(2-(1-benzylpiperidin-4-yl)ethyl)-N^2-(2-oxo-2H-chromene-3-carbonyl)-L-glutaminate] |  | 19.1 µM | 25 µM | 25.4 µM |  |  | 
20 | CCOC(=O)[C@H](CCC(=O)NCCC1CCN(Cc2ccccc2)CC1)NC(=O)c1ccc2ccccc2n1 [NF1360, Ethyl N^5-(2-(1-benzylpiperidin-4-yl)ethyl)-N^2-(quinoline-2-carbonyl)-L-glutaminate] |  | 24.3 µM | 50 µM | 32.3 µM |  |  | 
21 | O=C(CC[C@H](NC(=O)OCc1ccccc1)C(=O)OCCBr)NCCC1CCN(Cc2ccccc2)CC1 [NF1363, 2-Bromoethyl N^2-((benzyloxy)carbonyl)-N^5-(2-(1-benzylpiperidin-4-yl)ethyl)-L-glutaminate] |  | 5.4 µM | 6.25 µM | 7.3 µM |  |  | 
22 | CCOC(=O)[C@H](CCC(=O)NCCC1CCN(Cc2ccccc2)CC1)NC(=O)OCc1ccccc1 [NF1365, Ethyl N^2-((benzyloxy)carbonyl)-N^5-(2-(1-benzylpiperidin-4-yl)ethyl)-L-glutaminate] |  | 2.4 µM | 3.12 µM | 3.2 µM |  |  | EC50 [2]: 36 µM; EC90 [2]: 47 µM; EC50 [4]: 27 µM; EC90 [4]: 45 µM; EC50 [5, 18]: 1.8 µM; EC90 [5, 19]: 6 µM; CC50 [6]: 50 µM; EC50 [8, 20]: 1 to 2 µM; EC90 [8, 21]: 2.5 to 5 µM; EC50 [12]: 1 µM; EC90 [12]: 8 µM; CC50 at 48 h [13]: > 50 µM
